Source: patent US10125111B2, “Benzofuran compounds for the treatment of hepatitis C” (BRISTOL-MYERS SQUIBB COMPANY, priority 2015, dated 2018)
Read-outs that look alike come from different tables or passages of the source.

System: genotype 1b (Con-1) HCV replicon
Assay: HCV Replicon Luciferase Assay
Assay type: cell-based
Details: Hepatitis C virus, 72 h, Huh-7 genotype 1b replicon, Renilla luciferase, 3 days incubation
Experimental: The cell lines used to evaluate compounds consist of a human hepatocyte derived cell line (Huh-7) that constitutively expresses a genotype 1b (Con-1) HCV replicon or a genotype 1b (Con-1) HCV replicon with an asparagine replacing the cysteine at amino acid 316, or a genotype 2a (JFH-1) replicon, containing a Renilla luciferase reporter gene. These cells were maintained in Dulbecco's modified Eagle medium (DMEM) containing 10% FBS, 100 U/mL penicillin/streptomycin and 1.0 mg/mL G418.
To evaluate compound efficacy, titrated compounds were transferred to sterile 384-well tissue culture treated plates, and the plates were seeded with HCV replicon cells (50 μL at a density of 2.4×10^3 cells/well) in DMEM containing 4% FBS (final DMSO concentration at 0.5%). After 3 days incubation at 37° C., cells were analyzed for Renilla Luciferase activity using the EnduRen substrate (Promega cat #E6485) according to the manufacturer's directions. Briefly, the EnduRen substrate was diluted in DMEM and then added to the plates to a final concentration of 7.5 μM. The plates were incubated for at least 1 h at 37° C. then read on a Viewlux Imager (PerkinElmer) using a luminescence program. The 50% effective concentration (EC50) was calculated using the four-parameter logistic Formula noted above.
Compound EC50 data is expressed as A: <100 nM; B=100-1000 nM; C>1000 nM).

Row | SMILES | EC50 (read-out: EC50 1b (class)) | EC50 (read-out: EC50 (uM) 1b)
1 | CNC(=O)c1c(-c2ccc(F)cc2)oc2cc(N(CCF)S(C)(=O)=O)c(-c3cccc(C(=O)N4CCC(c5ccc(F)cc5)C4)c3)cc12 (stereo not drawn) [Compound 3034] | < 0.1 µM | 0.0117 µM
2 | CNC(=O)c1c(-c2ccc(F)cc2)oc2cc(N(CCF)S(C)(=O)=O)c(-c3cccc(C(=O)N4CCC[C@H]4CO)c3)cc12 [Compound 3035] | 0.1 to 1 µM | –
3 | CNC(=O)c1c(-c2ccc(F)cc2)oc2cc(N(CCF)S(C)(=O)=O)c(-c3cccc(C(=O)N4CCC(NC(C)=O)C4)c3)cc12 (stereo not drawn) [Compound 3036] | > 1 µM | –
4 | CNC(=O)c1c(-c2ccc(F)cc2)oc2cc(N(CCF)S(C)(=O)=O)c(-c3cccc(C(=O)N4CC[C@H](O)C4)c3)cc12 [Compound 3037] | > 1 µM | –
5 | CNC(=O)c1c(-c2ccc(F)cc2)oc2cc(N(CCF)S(C)(=O)=O)c(-c3cccc(C(=O)N4CC[C@@H](NC(=O)OC(C)(C)C)C4)c3)cc12 [Compound 3038] | < 0.1 µM | –
6 | CNC(=O)c1c(-c2ccc(F)cc2)oc2cc(N(CCF)S(C)(=O)=O)c(-c3cccc(C(=O)N4CCC(O)C4)c3)cc12 (stereo not drawn) [Compound 3039] | > 1 µM | 1.61 µM
7 | CNC(=O)c1c(-c2ccc(F)cc2)oc2cc(N(CCF)S(C)(=O)=O)c(-c3cccc(C(=O)N4CCC(c5cccc(Cl)c5)C4)c3)cc12 (stereo not drawn) [Compound 3040] | < 0.1 µM | 0.0413 µM
8 | CNC(=O)c1c(-c2ccc(F)cc2)oc2cc(N(CCF)S(C)(=O)=O)c(-c3cccc(C(=O)N4CCC[C@H]4C(=O)OC)c3)cc12 [Compound 3041] | 0.1 to 1 µM | –
9 | CNC(=O)c1c(-c2ccc(F)cc2)oc2cc(N(CCF)S(C)(=O)=O)c(-c3cccc(C(=O)N4CC(NC(=O)OC(C)(C)C)C4)c3)cc12 [Compound 3042] | 0.1 to 1 µM | 0.138 µM
10 | CCCC1CN(C(=O)c2ccccc2)CCN1C(=O)c1cccc(-c2cc3c(C(=O)NC)c(-c4ccc(F)cc4)oc3cc2N(CCF)S(C)(=O)=O)c1 (stereo not drawn) [Compound 3043] | < 0.1 µM | –
11 | CNC(=O)c1c(-c2ccc(F)cc2)oc2cc(N(CCF)S(C)(=O)=O)c(-c3cccc(C(=O)N4CCN(C(=O)OC(C)(C)C)CC4(C)C)c3)cc12 [Compound 3044] | < 0.1 µM | –
12 | CNC(=O)c1c(-c2ccc(F)cc2)oc2cc(N(CCCF)S(C)(=O)=O)c(-c3cccc(C(=O)O)c3)cc12 [Compound 4002] | > 1 µM | –
13 | CNC(=O)c1c(-c2ccc(F)cc2)oc2cc(N(CCCF)S(C)(=O)=O)c(-c3cccc(C(=O)NC(C)C(F)(F)F)c3)cc12 (stereo not drawn) [Compound 4003] | < 0.1 µM | 0.0093 µM
14 | CNC(=O)c1c(-c2ccc(F)cc2)oc2cc(N(CCCF)S(C)(=O)=O)c(-c3cccc(C(=O)NC(CF)(CF)CF)c3)cc12 [Compound 4004] | < 0.1 µM | –
15 | CNC(=O)c1c(-c2ccc(F)cc2)oc2cc(N(CCCF)S(C)(=O)=O)c(-c3cccc(C(=O)NC(C)(C)C(F)(F)F)c3)cc12 [Compound 4005] | < 0.1 µM | –
16 | [2H]C([2H])([2H])C(NC(=O)c1cccc(-c2cc3c(C(=O)NC)c(-c4ccc(F)cc4)oc3cc2N(CCCF)S(C)(=O)=O)c1)(C([2H])([2H])[2H])C([2H])([2H])[2H] [Compound 4006] | < 0.1 µM | –
17 | CNC(=O)c1c(-c2ccc(F)cc2)oc2cc(N(CCCF)S(C)(=O)=O)c(-c3cccc(C(=O)NCC(F)(F)C(F)(F)F)c3)cc12 [Compound 4007] | < 0.1 µM | 0.0053 µM
18 | CNC(=O)c1c(-c2ccc(F)cc2)oc2cc(N(CCCF)S(C)(=O)=O)c(-c3cccc(C(=O)NC(C)(C)CF)c3)cc12 [Compound 4008] | < 0.1 µM | –
19 | CNC(=O)c1c(-c2ccc(F)cc2)oc2cc(N(CCCF)S(C)(=O)=O)c(-c3cccc(C(=O)NCC(C)(C)C)c3)cc12 [Compound 4009] | < 0.1 µM | –
20 | CNC(=O)c1c(-c2ccc(F)cc2)oc2cc(N(CCCF)S(C)(=O)=O)c(-c3cccc(C(=O)NCC(F)(F)F)c3)cc12 [Compound 4010] | < 0.1 µM | –
21 | CNC(=O)c1c(-c2ccc(F)cc2)oc2cc(N(CCCF)S(C)(=O)=O)c(-c3cccc(C(=O)NC(C)(C)C)c3)cc12 [Compound 4011] | < 0.1 µM | –
22 | C#CC(C)(C)NC(=O)c1cccc(-c2cc3c(C(=O)NC)c(-c4ccc(F)cc4)oc3cc2N(CCCF)S(C)(=O)=O)c1 [Compound 4012] | < 0.1 µM | 0.008 µM
23 | CNC(=O)c1c(-c2ccc(F)cc2)oc2cc(N(CCCF)S(C)(=O)=O)c(-c3cccc(C(=O)NC(C)(C)C(=O)OC)c3)cc12 [Compound 4013] | < 0.1 µM | –
24 | CNC(=O)c1c(-c2ccc(F)cc2)oc2cc(N(CCCF)S(C)(=O)=O)c(-c3cccc(C(=O)NC4(C#N)CC4)c3)cc12 [Compound 4014] | < 0.1 µM | –
25 | CNC(=O)c1c(-c2ccc(F)cc2)oc2cc(N(CCCF)S(C)(=O)=O)c(-c3cccc(C(=O)NCC(C)C)c3)cc12 [Compound 4015] | < 0.1 µM | 0.0075 µM
